Consider eight compounds from PMC3037272 (Journal of medicinal chemistry, 2010).

The target in assay [1] is T1, 26S proteasome β1 subunit (Oryctolagus cuniculus, UniProt A0A5F9DQW2).
T1 sequence (A0A5F9DQW2 1-212): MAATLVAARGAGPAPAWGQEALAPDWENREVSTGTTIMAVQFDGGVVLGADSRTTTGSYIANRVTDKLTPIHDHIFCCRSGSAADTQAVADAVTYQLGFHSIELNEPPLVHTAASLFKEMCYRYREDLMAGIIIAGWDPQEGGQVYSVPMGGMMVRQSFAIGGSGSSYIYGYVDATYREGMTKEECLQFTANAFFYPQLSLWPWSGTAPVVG
Type of assay: biochemical, rabbit.

Assay [2] deals with T2, 26S proteasome β5 subunit (Oryctolagus cuniculus, UniProt G1T4Q9).
T2 sequence (G1T4Q9 1-263): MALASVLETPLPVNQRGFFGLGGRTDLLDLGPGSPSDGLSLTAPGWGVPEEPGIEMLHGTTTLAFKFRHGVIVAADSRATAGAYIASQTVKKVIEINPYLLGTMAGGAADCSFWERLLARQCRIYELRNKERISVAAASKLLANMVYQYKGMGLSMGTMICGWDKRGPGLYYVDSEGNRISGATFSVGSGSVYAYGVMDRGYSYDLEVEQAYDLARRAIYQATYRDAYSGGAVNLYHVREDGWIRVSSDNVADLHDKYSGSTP
The format is biochemical, rabbit.

Assay [3] has as its target T3, 26S proteasome β2 subunit (Oryctolagus cuniculus, UniProt G1SWK8).
T3 sequence (G1SWK8 1-271): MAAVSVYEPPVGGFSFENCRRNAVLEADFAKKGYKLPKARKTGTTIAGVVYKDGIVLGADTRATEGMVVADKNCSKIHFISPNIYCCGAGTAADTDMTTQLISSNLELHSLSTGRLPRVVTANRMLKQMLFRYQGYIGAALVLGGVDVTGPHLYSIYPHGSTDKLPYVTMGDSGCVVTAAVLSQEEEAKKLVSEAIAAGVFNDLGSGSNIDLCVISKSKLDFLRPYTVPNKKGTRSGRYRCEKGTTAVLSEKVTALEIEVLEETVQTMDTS

The target in another assay is proteasome β5 subunit (Homo sapiens, UniProt P28074). As to the kind of experiment: Competition assay against fluorescent probe MV151. Type of assay: binding. The note with it: HEK-293 lysate.
Another assay addresses proteasome β2 subunit (Homo sapiens, UniProt Q99436). Briefly: Competition assay against fluorescent probe MV151. The note with it: HEK-293 lysate.
In the next assay the target is proteasome β1 subunit (Homo sapiens, UniProt P28072). As to the kind of experiment: Competition assay against fluorescent probe MV151. The format is binding. The note with it: HEK-293 lysate, between 100 and 250 nM, competition against 9.

The structures appear in SMILES notation.

As to `CC(C)C[C@H](NC(=O)[C@H](Cc1c(F)c(F)c(F)c(F)c1F)NC(=O)c1cnccn1)B1OC2C[C@@H]3C[C@@H](C3(C)C)[C@]2(C)O1` (some centres unmarked) [2a], the IC50 in assay [1] stood at 440 nM. This counts as sub-micromolar.

Regarding `CC(C)C[C@H](NC(=O)[C@H](Cc1cc(C(F)(F)F)cc(C(F)(F)F)c1)NC(=O)c1cnccn1)B1OC2C[C@@H]3C[C@@H](C3(C)C)[C@]2(C)O1` (some centres unmarked) [2b], the half-maximal inhibitory concentration (IC50) in assay [2] came to 3 nM; in assay [1] it was 160 nM; in assay [3], 11000 nM.

On to `CC(C)C[C@H](NC(=O)[C@H](Cc1c(F)c(F)c(F)c(F)c1F)NC(=O)[C@H](Cc1ccccc1)NC(=O)[C@H](Cc1ccccc1)N=[N+]=[N-])C(=O)[C@@]1(C)CO1` [4a], for which the “concentration at which inhibition of β5 is apparent” value on proteasome β5 subunit (concentration series 1 nM to 1 μM, competition against 9) was found to be 5 nM. Also, at proteasome β2 subunit (1 μM inhibitor, Figure 3), the “β2 band in competition assay” value is given as “the majority of the corresponding band in Figure 3 is gone”. Further, the “effect on β2 when β5 is saturated” value at proteasome β2 subunit (between 100 and 250 nM, competition against 9) is listed as “unaffected or even upregulated”. In assay [1], the IC50 is greater than 15000 nM. The “effect on β1 when β5 is saturated” value at proteasome β1 subunit is given as “unaffected or even upregulated”.

`CC(C)C[C@H](NC(=O)[C@H](Cc1cc(C(F)(F)F)cc(C(F)(F)F)c1)NC(=O)[C@H](Cc1ccccc1)NC(=O)[C@H](Cc1ccccc1)N=[N+]=[N-])C(=O)[C@@]1(C)CO1` [4b]: the IC50 in assay [2] is 100 nM; in assay [1] it was greater than 15000 nM; in assay [3], greater than 15000 nM.

For the compound `CC(C)C[C@H](NC(=O)[C@H](Cc1ccccc1)NC(=O)[C@H](Cc1c(F)c(F)c(F)c(F)c1F)NC(=O)[C@H](Cc1ccccc1)N=[N+]=[N-])C(=O)[C@@]1(C)CO1` [5a], the IC50 is 200 nM in assay [2], greater than 15000 nM in assay [1] and greater than 15000 nM in assay [3].

With `CC(C)C[C@H](NC(=O)[C@H](Cc1ccccc1)NC(=O)[C@H](Cc1cc(C(F)(F)F)cc(C(F)(F)F)c1)NC(=O)[C@H](Cc1ccccc1)N=[N+]=[N-])C(=O)[C@@]1(C)CO1` [5b], the IC50 is 130 nM in assay [2], greater than 15000 nM in assay [1] and greater than 15000 nM in assay [3].

As for `CC(C)C[C@H](NC(=O)[C@H](Cc1ccccc1)NC(=O)[C@H](Cc1ccccc1)NC(=O)[C@H](Cc1ccccc1)N=[N+]=[N-])C(=O)[C@@]1(C)CO1` [compound 3], the IC50 in assay [1] was greater than 15000 nM.

As to `CC1=CC(C)=[N+]2C1=C(CCCCc1cn([C@@H](Cc3ccccc3)C(=O)N[C@@H](Cc3ccccc3)C(=O)N[C@@H](Cc3c(F)c(F)c(F)c(F)c3F)C(=O)N[C@@H](CC(C)C)C(=O)[C@@]3(C)CO3)nn1)c1c(C)cc(C)n1[B-]2(F)F` [compound 7], the IC50 was 300 nM in assay [2], greater than 10000 nM in assay [1] and greater than 10000 nM in assay [3]. Further, the “concentration at which labeling of the β5 subunit is visible” value at proteasome β5 subunit (direct fluorescent labeling, read-out at 520 nm) was 1 nM.
